Source: patent US20230406833A1, “HERBICIDAL MALONAMIDES” (BASF SE, priority 2020, published 2023)

Tests used:
Type in all cases: in vivo
[1] = test system: Apera spica-venti (APESV); test: greenhouse pre-emergence herbicidal test; conditions: scale from 0 to 100, read-out: herbicidal activity against APESV; for pest or weed control at 250 g/ha: 0.250 kg/ha; for pest or weed control at 500 g/ha: 0.500 kg/ha
Text: (§1) The culture containers used were plastic flowerpots containing loamy sand with approximately 3.0% of humus as the substrate. The seeds of the test plants were sown separately for each species.
(§2) For the pre-emergence treatment, the active ingredients, which had been suspended or emulsified in water, were applied directly after sowing by means of finely distributing nozzles. The containers were irrigated gently to promote germination and growth and subsequently covered with transparent plastic hoods until the test plants had rooted. This cover caused uniform germination of the test plants, unless this had been impaired by the active ingredients. For the post-emergence treatment, the test plants were first grown to a height of 3 to 15 cm, depending on the plant habit, and only then treated with the active ingredients which had been suspended or emulsified in water. For this purpose, the test plants were either shown directly and grown in the same containers, or they were first grown separately as seedlings and transplanted into the test containers a few days prior to treatment.
(§3) Depending on the species, the test plants were kept at 10-25° C. or 20-35° C., respectively. The test period extended over 2 to 4 weeks. During this time, the test plants were tended, and their response to the individual treatments was evaluated.
(§4) Evaluation was carried out using a scale from 0 to 100. 100 means no emergence of the test plants, or complete destruction of at least the aerial moieties, and 0 means no damage, or normal course of growth. A good herbicidal activity is given at values of 70 to <90 and a very good herbicidal activity is given at values of 90 to 100.
(§5) The test plants used in the greenhouse experiments were of the following species: […]

Avena fatua (AVEFA) = test: greenhouse post-emergence herbicidal test; conditions: for pest or weed control at 250 g/ha: 0.250 kg/ha; for pest or weed control at 500 g/ha: 0.500 kg/ha
Text: as §1, §2, §3, §4, §5

[2] = test system: Echinocloa crus-galli (ECHCG); test: greenhouse pre-emergence herbicidal test; conditions: 0.500 kg/ha, scale from 0 to 100
Text: as §1, §2, §3, §4, §5

Setaria faberi (SETFA) = test: greenhouse pre-emergence herbicidal test; conditions: scale from 0 to 100
Text: as §1, §2, §3, §4, §5

[3] = test system: Echinocloa crus-galli (ECHCG); test: greenhouse post-emergence herbicidal test; conditions: scale from 0 to 100
Text: as §1, §2, §3, §4, §5

[4] = test system: Lolium multiflorum (LOLMU); test: greenhouse pre-emergence herbicidal test; conditions: scale from 0 to 100
Text: as §1, §2, §3, §4, §5

[5] = test system: Abutilon theophrasti (ABUTH); test: greenhouse post-emergence herbicidal test; conditions: 1.000 kg/ha, scale from 0 to 100
Text: as §1, §2, §3, §4, §5

[6] = test system: Alopercurus myosuroides (ALOMY); test: greenhouse pre-emergence herbicidal test; conditions: scale from 0 to 100
Text: as §1, §2, §3, §4, §5

[7] = test system: Fallopia convolvulus (POLCO); test: greenhouse post-emergence herbicidal test; conditions: 0.32 kg/ha, scale from 0 to 100
Text: as §1, §2, §3, §4, §5

Setaria viridis (SETVI) [8] = test: greenhouse post-emergence herbicidal test; conditions: scale from 0 to 100
Text: as §1, §2, §3, §4, §5

Setaria viridis (SETVI) [9] = test: greenhouse pre-emergence herbicidal test; conditions: 0.250 kg/ha, scale from 0 to 100
Text: as §1, §2, §3, §4, §5

[10] = test system: Alopercurus myosuroides (ALOMY); test: greenhouse post-emergence herbicidal test; conditions: 0.125 kg/ha, scale from 0 to 100
Text: as §1, §2, §3, §4, §5

[11] = test system: Lolium multiflorum (LOLMU); test: greenhouse post-emergence herbicidal test; conditions: 0.125 kg/ha, scale from 0 to 100
Text: as §1, §2, §3, §4, §5

[12] = test system: Abutilon theophrasti (ABUTH); test: greenhouse pre-emergence herbicidal test; conditions: 0.500 kg/ha, scale from 0 to 100
Text: as §1, §2, §3, §4, §5

[13] = test system: Amaranthus retroflexus (AMARE); test: greenhouse post-emergence herbicidal test; conditions: 0.125 kg/ha, scale from 0 to 100
Text: as §1, §2, §3, §4, §5

[14] = Avena fatua, scale from 0 to 100, read-out: herbicidal activity against AVEFA

COC(=O)CC[C@H](C)NC(=O)C1(C(=O)Nc2cc(Cl)cc(Cl)c2)OCCS1 (stereo partly drawn) [I.21, methyl (4S)-4-[[2-[(3,5-dichlorophenyl)carbamoyl]-1,3-oxathiolane-2-carbonyl]amino]pentanoate]
pest or weed control at 250 g/ha [1]: 90 to 100% | pest or weed control at 250 g/ha (Avena fatua (AVEFA); [14]): 90 to 100%

COC(=O)[C@@H]1CC[C@H](NC(=O)C2(C(=O)Nc3cc(Cl)cc(Cl)c3)CCCO2)C1 (stereo partly drawn) [Compound I15]
herbicidal activity against ECHCG [2]: good (A good herbicidal activity is given at values of 70 to <90) | herbicidal activity against SETFA (Setaria faberi (SETFA); 0.500 kg/ha): good (A good herbicidal activity is given at values of 70 to <90)

COC(=O)C1C=CC(NC(=O)C2(C(=O)Nc3cc(Cl)cc(Cl)c3)OC2(C)C)C1 (mixture of isomers) [I.220]
herbicidal activity against ECHCG ([3]; 0.500 kg/ha): good (A good herbicidal activity is given at values of 70 to <90)

COC(=O)[C@@H]1C=C[C@H](NC(=O)C2(C(=O)Nc3cc(Cl)cc(Cl)c3)OCCS2)C1 (stereo partly drawn) [I.20, methyl (1S,4R)-4-[[2-[(3,5-dichlorophenyl)carbamoyl]-1,3-oxathiolane-2-carbonyl]amino]cyclopent-2-ene-1-carboxylate]
pest or weed control at 250 g/ha [1]: 70 to 90% | pest or weed control at 250 g/ha (Avena fatua (AVEFA); [14]): 90 to 100%

Cn1nnnc1NC(=O)C1(C(=O)Nc2cc(F)c(F)c(F)c2)CCO1 (racemic) [I.5]
herbicidal activity against LOLMU ([4]; 0.250 kg/ha): very good (a very good herbicidal activity is given at values of 90 to 100)

COC(=O)C[C@H](C)NC(=O)C1(C(=O)Nc2cc(Cl)cc(Cl)c2)CCO1 (stereo partly drawn) [Compound I7, methyl (3S)-3-[[2-[(3,5-dichlorophenyl)carbamoyl]oxetane-2-carbonyl]amino]butanoate]
pest or weed control at 500 g/ha [1]: 90 to 100% | pest or weed control at 500 g/ha (Avena fatua (AVEFA); [14]): 90 to 100%

COC(=O)[C@@H]1C=C[C@H](NC(=O)C2(C(=O)Nc3cc(F)cc(F)c3)CCO2)C1 (stereo partly drawn) [Compound I1, methyl (1S,4R)-4-[[2-[(3,5-difluorophenyl)carbamoyl]oxetane-2-carbonyl]amino]cyclopent-2-ene-1-carboxylate]
pest or weed control at 250 g/ha [1]: 90 to 100% | pest or weed control at 250 g/ha (Avena fatua (AVEFA); [14]): 90 to 100%

COC(=O)CC(C)NC(=O)C1(C(=O)Nc2cc(Cl)cc(Cl)c2)OCCO1 (racemic) [I.19]
herbicidal activity against ABUTH [5]: good (A good herbicidal activity is given at values of 70 to <90)

COC(=O)CCCNC(=O)C1(C(=O)Nc2cc(Cl)cc(Cl)c2)CCCO1 (stereo not drawn) [Compound I18, methyl 4-[[2-[(3,5-dichlorophenyl)carbamoyl]tetrahydrofuran-2-carbonyl]amino]butanoate]
pest or weed control at 500 g/ha [1]: 90 to 100% | pest or weed control at 500 g/ha (Avena fatua (AVEFA); [14]): 70 to 90%

CC(C)OC(=O)C1C=CC(NC(=O)C2(C(=O)Nc3cc(F)c(F)c(F)c3)CCO2)C1 (stereo not drawn) [I.133]
herbicidal activity against ALOMY ([6]; 0.13128 kg/ha): very good (a very good herbicidal activity is given at values of 90 to 100) | herbicidal activity against LOLMU ([4]; 0.13128 kg/ha): very good (a very good herbicidal activity is given at values of 90 to 100) | herbicidal activity against SETFA (Setaria faberi (SETFA); 0.13128 kg/ha): very good (a very good herbicidal activity is given at values of 90 to 100)

CC(C)OC(=O)C1C=CC(NC(=O)C2(C(=O)Nc3cc(F)cc(F)c3)CCO2)C1 (mixture of isomers) [I.4]
herbicidal activity against ECHCG ([3]; 0.32 kg/ha): very good (a very good herbicidal activity is given at values of 90 to 100) | herbicidal activity against POLCO [7]: very good (a very good herbicidal activity is given at values of 90 to 100) | herbicidal activity against SETVI (Setaria viridis (SETVI) [8]; 0.32 kg/ha): very good (a very good herbicidal activity is given at values of 90 to 100)

COC(=O)CCCNC(=O)C1(C(=O)Nc2cc(Cl)cc(Cl)c2)COCO1 (stereo not drawn) [I.23, methyl 4-[[4-[(3,5-dichlorophenyl)carbamoyl]-1,3-dioxolane-4-carbonyl]amino]butanoate]
pest or weed control at 500 g/ha (Avena fatua (AVEFA); [14]): 70 to 90%

CC(C)OC(=O)C1C=CC(NC(=O)C2(C(=O)Nc3cccc(OC(F)(F)F)c3)CCO2)C1 (stereo not drawn) [I.134]
herbicidal activity against ECHCG ([3]; 0.0625 kg/ha): very good (a very good herbicidal activity is given at values of 90 to 100)

O=C([O-])C1C=CC(NC(=O)C2(C(=O)Nc3cc(Cl)cc(Cl)c3)C=CCO2)C1.[Na+] (mixture of isomers) [I.201]
herbicidal activity against SETVI (Setaria viridis (SETVI) [9]): good (A good herbicidal activity is given at values of 70 to <90)

O=C(O)CCCNC(=O)C1(C(=O)Nc2cc(F)cc(F)c2)CCO1 (stereo not drawn) [I.126]
herbicidal activity against SETVI (Setaria viridis (SETVI) [8]; 0.0625 kg/ha): good (A good herbicidal activity is given at values of 70 to <90)

COC(=O)[C@@H]1C=C[C@H](NC(=O)C2(C(=O)Nc3cc(Cl)cc(Cl)c3)CCCO2)C1 (stereo partly drawn) [Compound I16, methyl (1S,4R)-4-[[2-[(3,5-dichlorophenyl)carbamoyl]tetrahydrofuran-2-carbonyl]amino]cyclopent-2-ene-1-carboxylate]
pest or weed control at 500 g/ha [1]: 90 to 100%

COC(=O)[C@@H]1C=C[C@H](NC(=O)C2(C(=O)Nc3cc(Cl)cc(Cl)c3)C=CCO2)C1 (stereo partly drawn) [Compound I183, methyl (1S,4R)-4-[[5-[(3,5-dichlorophenyl)carbamoyl]-2H-furan-5-carbonyl]amino]cyclopent-2-ene-1-carboxylate]
pest or weed control at 125 g/ha ([1]; 0.125 kg/ha): 70 to 90%

COC(=O)C[C@H](C)NC(=O)C1(C(=O)Nc2cc(Cl)cc(Cl)c2)COCO1 (stereo partly drawn) [I.22]
herbicidal activity against ALOMY [10]: very good (a very good herbicidal activity is given at values of 90 to 100) | pest or weed control at 125 g/ha (Avena fatua (AVEFA); Avena fatua, 0.125 kg/ha, scale from 0 to 100, read-out: herbicidal activity against AVEFA): 90 to 100% | herbicidal activity against LOLMU [11]: very good (a very good herbicidal activity is given at values of 90 to 100)

COC(=O)[C@@H]1C=C[C@H](NC(=O)C2(C(=O)Nc3cc(Cl)cc(Cl)c3)CCO2)C1 (stereo partly drawn) [Compound I6, methyl (1S,4R)-4-[[2-[(3,5-dichlorophenyl)carbamoyl]oxetane-2-carbonyl]amino]cyclopent-2-ene-1-carboxylate]
herbicidal activity against ABUTH [12]: very good (a very good herbicidal activity is given at values of 90 to 100) | pest or weed control at 500 g/ha [1]: 90 to 100%

C=C1CCOC1(C(=O)Nc1cc(Cl)cc(Cl)c1)C(=O)NC(C)CC(=O)OC (stereo not drawn) [I.122]
herbicidal activity against AMARE [13]: good (A good herbicidal activity is given at values of 70 to <90)

COC(=O)[C@@H]1C=C[C@H](NC(=O)C2(C(=O)Nc3cc(Cl)cc(Cl)c3)C=CCO2)C1 (stereo partly drawn) [Compound I24, methyl (1S,4R)-4-[[5-[(3,5-dichlorophenyl)carbamoyl]-2H-furan-5-carbonyl]amino]cyclopent-2-ene-1-carboxylate]
herbicidal activity against ALOMY ([6]; 0.250 kg/ha): very good (a very good herbicidal activity is given at values of 90 to 100) | pest or weed control at 250 g/ha (Avena fatua (AVEFA); [14]): 90 to 100%

COC(=O)CC(C)NC(=O)C1(C(=O)Nc2cc(Cl)cc(Cl)c2)C=CCO1 (mixture of isomers) [I.25]
herbicidal activity against ALOMY ([6]; 0.0625 kg/ha): good (A good herbicidal activity is given at values of 70 to <90) | herbicidal activity against LOLMU ([4]; 0.0625 kg/ha): very good (a very good herbicidal activity is given at values of 90 to 100)

COC(=O)[C@@H]1C=C[C@H](NC(=O)C2(C(=O)Nc3cc(Cl)cc(Cl)c3)C=CCO2)C1 (stereo partly drawn) [Compound I184, methyl (1S,4R)-4-[[5-[(3,5-dichlorophenyl)carbamoyl]-2H-furan-5-carbonyl]amino]cyclopent-2-ene-1-carboxylate]
pest or weed control at 250 g/ha [1]: 90 to 100%

CS(=O)(=O)CCOC(=O)CCCNC(=O)C1(C(=O)Nc2cc(F)cc(F)c2)CCO1 (stereo not drawn) [I.130]
herbicidal activity against AVEFA (Avena fatua (AVEFA); 0.0625 kg/ha, scale from 0 to 100): good (A good herbicidal activity is given at values of 70 to <90)

COC(=O)C[C@H](C)NC(=O)C1(C(=O)Nc2cc(F)cc(F)c2)CCO1 (stereo partly drawn) [Compound I2, methyl (3S)-3-[[2-[(3,5-difluorophenyl)carbamoyl]oxetane-2-carbonyl]amino]butanoate]
pest or weed control at 500 g/ha [1]: 90 to 100%

COC(=O)C[C@H](C)NC(=O)C1(C(=O)Nc2cc(Cl)cc(Cl)c2)CCCO1 (stereo partly drawn) [I.17, methyl (3S)-3-[[2-[(3,5-dichlorophenyl)carbamoyl]tetrahydrofuran-2-carbonyl]amino]butanoate]
pest or weed control at 500 g/ha [1]: 90 to 100% | pest or weed control at 500 g/ha (Avena fatua (AVEFA); [14]): 70 to 90%
